Data reported in patent publication US20240208992A1, “MACROCYCLES AS CFTR MODULATORS” (Idorsia Pharmaceuticals Ltd, priority 2021, published 2024).
pEC50: −log10 of the molar value.

Target: human F508del-CFTR (Homo sapiens, UniProt P13569, DEL508-508)
Experiment: F508del-CFTR cell surface expression (corrector activity), DiscoveRx ß-galactosidase complementation chemiluminescence assay in recombinant U2OS cell line;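 note: U2OS cells co-expressing ProLink-tagged F508del-CFTR and a membrane-anchored enzyme acceptor, where more surface CFTR restores β-galactosidase activity measured by chemiluminescence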
Conditions: for pEC50: EC50, F508del-CFTR cell surface expression, U2OS cells, 16h compound incubation, geomean values; for Emax: U2OS, in relation to Emax of corrector lumacaftor (=100%), arithmetic mean values

Sequence of human F508del-CFTR (P13569 with tags, fused parts or gaps DEL508-508): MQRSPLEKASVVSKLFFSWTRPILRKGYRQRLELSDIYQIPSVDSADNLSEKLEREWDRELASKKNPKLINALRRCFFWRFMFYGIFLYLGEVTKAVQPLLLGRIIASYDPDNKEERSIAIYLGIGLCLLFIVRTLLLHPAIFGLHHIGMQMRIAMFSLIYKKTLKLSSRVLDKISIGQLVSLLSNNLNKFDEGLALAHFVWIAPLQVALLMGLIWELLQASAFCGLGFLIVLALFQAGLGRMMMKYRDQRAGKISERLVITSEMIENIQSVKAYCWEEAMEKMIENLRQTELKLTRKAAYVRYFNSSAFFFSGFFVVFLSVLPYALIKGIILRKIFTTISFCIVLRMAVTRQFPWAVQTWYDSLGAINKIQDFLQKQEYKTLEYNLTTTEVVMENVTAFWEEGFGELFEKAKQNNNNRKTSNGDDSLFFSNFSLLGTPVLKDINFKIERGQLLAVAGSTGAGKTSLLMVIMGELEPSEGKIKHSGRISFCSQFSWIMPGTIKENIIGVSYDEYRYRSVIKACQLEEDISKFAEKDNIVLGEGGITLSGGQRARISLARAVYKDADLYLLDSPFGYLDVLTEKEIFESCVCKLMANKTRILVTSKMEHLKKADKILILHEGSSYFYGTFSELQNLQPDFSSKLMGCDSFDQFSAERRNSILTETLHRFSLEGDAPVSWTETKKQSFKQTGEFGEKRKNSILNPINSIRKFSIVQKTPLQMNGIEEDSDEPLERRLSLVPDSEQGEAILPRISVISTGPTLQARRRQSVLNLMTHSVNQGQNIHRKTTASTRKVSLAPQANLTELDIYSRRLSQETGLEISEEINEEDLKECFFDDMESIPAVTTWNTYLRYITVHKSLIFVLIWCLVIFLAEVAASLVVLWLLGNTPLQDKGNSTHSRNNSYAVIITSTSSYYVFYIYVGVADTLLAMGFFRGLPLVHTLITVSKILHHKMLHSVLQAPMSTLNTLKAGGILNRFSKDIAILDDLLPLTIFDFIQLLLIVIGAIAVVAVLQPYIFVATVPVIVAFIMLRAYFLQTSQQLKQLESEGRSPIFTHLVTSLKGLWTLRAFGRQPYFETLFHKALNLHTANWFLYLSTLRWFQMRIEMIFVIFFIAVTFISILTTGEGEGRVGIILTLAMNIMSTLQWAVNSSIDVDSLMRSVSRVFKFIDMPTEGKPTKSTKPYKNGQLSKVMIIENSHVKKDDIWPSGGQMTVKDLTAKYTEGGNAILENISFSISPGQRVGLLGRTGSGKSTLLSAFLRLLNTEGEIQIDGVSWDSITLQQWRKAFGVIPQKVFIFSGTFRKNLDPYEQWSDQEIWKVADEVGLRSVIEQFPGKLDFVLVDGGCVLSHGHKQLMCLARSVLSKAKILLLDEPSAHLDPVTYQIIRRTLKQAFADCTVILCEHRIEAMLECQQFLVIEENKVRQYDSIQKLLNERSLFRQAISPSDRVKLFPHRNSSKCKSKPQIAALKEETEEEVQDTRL

Row | SMILES | pEC50 | Emax [%]
1 | Cc1cc(CCNC(=O)[C@@H]2CC(=O)N(C)[C@@H](CC(C)C)C(=O)N3CCCC[C@@H]3C(=O)N[C@H](Cc3ccccc3)COc3nc4ccccn4c3C(=O)N2)on1 [Example 470, (7S,11S,22R,24aR)-22-benzyl-7-isobutyl-8-methyl-N-(2-(3-methylisoxazol-5-yl)ethyl)-6,9,13,24-tetraoxo-1,3,4,6,7,8,9,10,11,12,13,21,22,23,24,24a-hexadecahydro-2H-pyrido[2,1-f]pyrido[2′,1′:2,3]imidazo[4,5-p][1]oxa[4,7,10,14]tetraazacycloheptadecine-11-carboxamide] | 6.18 | 169
2 | COc1cccc(CCNC(=O)[C@@H]2CC(=O)N(C)[C@@H](CC(C)C)C(=O)N(C)C3(CC3)C(=O)N[C@H](Cc3ccccc3)COc3ccc4cccnc4c3C(=O)N2)c1 [Example 471, (9′R,15′S,19′S)-9′-benzyl-15′-isobutyl-N-(3-methoxyphenethyl)-13′,16′-dimethyl-11′,14′,17′,21′-tetraoxo-8′,9′,10′,11′,14′,15′,16′,17′,18′,19′,20′,21′-dodecahydro-13′H-spiro[cyclopropane-1,12′-[1]oxa[4,7,10,14]tetraazacycloheptadecino[17,16-h]quinoline]-19′-carboxamide] | 6.01 | 278
3 | CC(C)C[C@H]1C(=O)N2CCCC[C@@H]2C(=O)N[C@H](Cc2ccccc2)COc2ccc3ncccc3c2C(=O)N[C@H](C(=O)NCCc2ccc(-n3nccn3)cc2)CC(=O)N1C [Example 472, (9S,13S,19aR,22R)-N-(4-(2H-1,2,3-triazol-2-yl)phenethyl)-22-benzyl-13-isobutyl-12-methyl-7,11,14,20-tetraoxo-7,8,9,10,11,12,13,14,17,18,19,19a,20,21,22,23-hexadecahydro-16H-pyrido[2′,1′:6,7][1]oxa[4,7,10,14]tetraazacycloheptadecino[16,17-f]quinoline-9-carboxamide] | 6.55 | 239
4 | CC(C)C[C@H]1C(=O)N2CCCC[C@H]2C(=O)N[C@H](Cc2ccccc2)COc2ccc3ncccc3c2C(=O)N[C@H](C(=O)NCCc2ccc(-n3nccn3)cc2)CC(=O)N1C [Example 473, (9S,13S,19aS,22R)-N-(4-(2H-1,2,3-triazol-2-yl)phenethyl)-22-benzyl-13-isobutyl-12-methyl-7,11,14,20-tetraoxo-7,8,9,10,11,12,13,14,17,18,19,19a,20,21,22,23-hexadecahydro-16H-pyrido[2′,11:6,7][1]oxa[4,7,10,14]tetraazacycloheptadecino[16,17-f]quinoline-9-carboxamide] | 6.23 | 119
5 | Cc1cc(CCNC(=O)[C@@H]2CC(=O)N(C)[C@@H](CC(C)C)C(=O)N3CCCC[C@@H]3C(=O)N[C@H](Cc3ccccc3)COc3ccc4ncccc4c3C(=O)N2)on1 [Example 474, (9S,13S,19aR,22R)-22-benzyl-13-isobutyl-12-methyl-N-(2-(3-methylisoxazol-5-yl)ethyl)-7,11,14,20-tetraoxo-7,8,9,10,11,12,13,14,17,18,19,19a,20,21,22,23-hexadecahydro-16H-pyrido[2′,11:6,7][1]oxa[4,7,10,14]tetraazacycloheptadecino[16,17-f]quinoline-9-carboxamide] | 6.32 | 359
6 | Cc1cc(CCNC(=O)[C@@H]2CC(=O)N(C)[C@@H](CC(C)C)C(=O)N3CCN(S(=O)(=O)c4cccnc4)C[C@@H]3C(=O)N[C@H](Cc3ccccc3)COc3ccc4ccccc4c3C(=O)N2)on1 [Example 475, (4aR,7R,18S,22S)-7-benzyl-22-isobutyl-21-methyl-N-(2-(3-methylisoxazol-5-yl)ethyl)-5,16,20,23-tetraoxo-3-(pyridin-3-ylsulfonyl)-2,3,4,4a,5,6,7,8,16,17,18,19,20,21,22,23-hexadecahydro-1H-naphtho[1,2-p]pyrazino[2,1-f][1]oxa[4,7,10,14]tetraazacycloheptadecine-18-carboxamide] | 6.00 | 314
7 | CC(C)C[C@H]1C(=O)N(C)C2(CC2)C(=O)N[C@H](Cc2ccccc2)COc2cnc3ccccc3c2C(=O)N[C@H](C(=O)NCCc2cc(C3CC3)no2)CC(=O)N1C [Example 476, (3′S,7′S,13′R)-13′-benzyl-N-(2-(3-cyclopropylisoxazol-5-yl)ethyl)-7′-isobutyl-6′,9′-dimethyl-1′,5′,8′,11′-tetraoxo-2′,3′,4′,5′,6′,7′,8′,9′,11′,12′,13′,14′-dodecahydro-1′H-spiro[cyclopropane-1,10′-[1]oxa[4,7,10,14]tetraazacycloheptadecino[17,16-c]quinoline]-3′-carboxamide] | 6.48 | 344
8 | COc1nccc2c1C(=O)N[C@H](C(=O)NCCc1cc(C)no1)CC(=O)N(C)[C@@H](CC(C)C)C(=O)N1CCCC[C@@H]1C(=O)N[C@H](Cc1ccccc1)CO2 [Example 477, (7S,11S,17aR,20R)-20-benzyl-11-isobutyl-4-methoxy-10-methyl-N-(2-(3-methylisoxazol-5-yl)ethyl)-5,9,12,18-tetraoxo-5,6,7,8,9,10,11,12,15,16,17,17a,18,19,20,21-hexadecahydro-14H-dipyrido[2,1-f:3′,4′-p][1]oxa[4,7,10,14]tetraazacycloheptadecine-7-carboxamide] | 6.12 | 327
9 | COc1nccc2c1C(=O)N[C@H](C(=O)NCCc1c(F)cccc1F)CC(=O)N(C)[C@@H](CC(C)C)C(=O)N1CCCC[C@@H]1C(=O)N[C@H](Cc1ccccc1)CO2 [Example 478, (7S,11S,17aR,20R)-20-benzyl-N-(2,6-difluorophenethyl)-11-isobutyl-4-methoxy-10-methyl-5,9,12,18-tetraoxo-5,6,7,8,9,10,11,12,15,16,17,17a,18,19,20,21-hexadecahydro-14H-dipyrido[2,1-f:3′,4′-p][1]oxa[4,7,10,14]tetraazacycloheptadecine-7-carboxamide] | 6.77 | 337
10 | COc1cncc(S(=O)(=O)N2CCN3C(=O)[C@H](CC(C)C)N(C)C(=O)C[C@@H](C(=O)NCCc4cc(C)no4)NC(=O)c4c(ccc5ccccc45)OC[C@@H](Cc4ccccc4)NC(=O)[C@H]3C2)c1 [Example 479, (4aR,7R,18S,22S)-7-benzyl-22-isobutyl-3-((5-methoxypyridin-3-yl)sulfonyl)-21-methyl-N-(2-(3-methylisoxazol-5-yl)ethyl)-5,16,20,23-tetraoxo-2,3,4,4a,5,6,7,8,16,17,18,19,20,21,22,23-hexadecahydro-1H-naphtho[1,2-p]pyrazino[2,1-f][1]oxa[4,7,10,14]tetraazacycloheptadecine-18-carboxamide] | 6.32 | 253
11 | Cc1cc(CCNC(=O)[C@@H]2CC(=O)N(C)[C@@H](CC(C)C)C(=O)N3CCCC[C@@H]3C(=O)N[C@H](Cc3ccccc3)COc3cnc4ccc(F)cc4c3C(=O)N2)on1 [Example 480, (9S,13S,19aR,22R)-22-benzyl-5-fluoro-13-isobutyl-12-methyl-N-(2-(3-methylisoxazol-5-yl)ethyl)-7,11,14,20-tetraoxo-7,8,9,10,11,12,13,14,17,18,19,19a,20,21,22,23-hexadecahydro-16H-pyrido[2′,11:6,7][1]oxa[4,7,10,14]tetraazacycloheptadecino[17,16-c]quinoline-9-carboxamide] | 6.70 | 276
12 | CC(C)C[C@H]1C(=O)N2CCCC[C@@H]2C(=O)N[C@H](Cc2ccccc2)COc2cnc3ccc(F)cc3c2C(=O)N[C@H](C(=O)NCCc2ccc(-n3nccn3)cc2)CC(=O)N1C [Example 481, (9S,13S,19aR,22R)-N-(4-(2H-1,2,3-triazol-2-yl)phenethyl)-22-benzyl-5-fluoro-13-isobutyl-12-methyl-7,11,14,20-tetraoxo-7,8,9,10,11,12,13,14,17,18,19,19a,20,21,22,23-hexadecahydro-16H-pyrido[2′,1′:6,7][1]oxa[4,7,10,14]tetraazacycloheptadecino[17,16-c]quinoline-9-carboxamide] | 6.35 | 225
13 | Cc1nc2ccc3c(c2o1)C(=O)N[C@H](C(=O)NCCc1c(F)cccc1F)CC(=O)N(C)[C@@H](CC(C)C)C(=O)N1CCCC[C@@H]1C(=O)N[C@H](Cc1ccccc1)CO3 [Example 482, (8S,12S,18aR,21R)-21-benzyl-N-(2,6-difluorophenethyl)-12-isobutyl-4,11-dimethyl-6,10,13,19-tetraoxo-6,7,8,9,10,11,12,13,16,17,18,18a,19,20,21,22-hexadecahydro-15H-oxazolo[4′,5′:5,6]benzo[1,2-p]pyrido[2,1-f][1]oxa[4,7,10,14]tetraazacycloheptadecine-8-carboxamide] | 6.38 | 247
14 | COc1nccc2c1C(=O)N[C@H](C(=O)NCCc1noc(C3CC3)n1)CC(=O)N(C)[C@@H](CC(C)C)C(=O)N1CCCC[C@@H]1C(=O)N[C@H](Cc1ccccc1)CO2 [Example 483, (7S,11S,17aR,20R)-20-benzyl-N-(2-(5-cyclopropyl-1,2,4-oxadiazol-3-yl)ethyl)-11-isobutyl-4-methoxy-10-methyl-5,9,12,18-tetraoxo-5,6,7,8,9,10,11,12,15,16,17,17a,18,19,20,21-hexadecahydro-14H-dipyrido[2,1-f:3′,4′-p][1]oxa[4,7,10,14]tetraazacycloheptadecine-7-carboxamide] | 6.29 | 311
15 | CC(C)C[C@H]1C(=O)N2CCCC[C@@H]2C(=O)N[C@H](Cc2ccccc2)COc2nc3ccccn3c2C(=O)N[C@H](C(=O)NCCc2c(F)cccc2F)CC(=O)N1C [Example 484, (7S,11S,22R,24aR)-22-benzyl-N-(2,6-difluorophenethyl)-7-isobutyl-8-methyl-6,9,13,24-tetraoxo-1,3,4,6,7,8,9,10,11,12,13,21,22,23,24,24a-hexadecahydro-2H-pyrido[2,1-f]pyrido[2′,1′:2,3]imidazo[4,5-p][1]oxa[4,7,10,14]tetraazacycloheptadecine-11-carboxamide] | 6.60 | 117
